Test systems include CAKI-1 renal; SK-MEL-2 melanoma; HOP-62 NSCLC; OVCAR-8 ovarian; HOP-92 NSCLC; HT29 colon; HCC-2998 colon; NCI/ADR-RES ovarian; SK-OV-3 ovarian; SNB-75 CNS.
Holding throughout (assay): NCI anticancer screen, dose series, 48 h

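The compound was tested at five concentrations on cells cultured in 96-well plates, with a 48-hour exposure period. GI50 marks 50% less growth. The concentration for full growth arrest is given as TGI.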 A value given as a limit tells only on which side of the number the result lay.

Experimental findings from PubChem BioAssay (NCI) are described below.

For `Cc1c2c(nn1-c1ccc(S(=O)(=O)/N=C3\SCC(=O)N3C(=O)c3ccccc3)cc1)-c1ccccc1CC2`, the GI50 was 26.6 µM in the experiment with CAKI-1 renal; above 100 µM in the experiment with SK-MEL-2 melanoma; 33.5 µM in the experiment with HOP-62 NSCLC; 68.8 µM in the experiment with OVCAR-8 ovarian; 30.9 µM with HOP-92 NSCLC; 63.5 µM with HT29 colon. The GI50 was 98.6 µM with HCC-2998 colon and above 100 µM in the experiment with NCI/ADR-RES ovarian. Further, the TGI in the experiment with CAKI-1 renal was 65.9 µM; in the experiment on SK-MEL-2 melanoma, above 100 µM; in the experiment on HOP-62 NSCLC, above 100 µM; in the experiment on OVCAR-8 ovarian, above 100 µM; in the experiment with HOP-92 NSCLC it was 66.2 µM; in the experiment on HT29 colon it was above 100 µM. For the same compound, the TGI in the experiment on HCC-2998 colon and with NCI/ADR-RES ovarian was above 100 µM each time.
With `C[C@]12CC[C@@H]3c4ccc(Oc5nc(N6CC6)nc(N6CC6)n5)cc4CC[C@H]3[C@@H]1CCC2=O`, the GI50 was 0.641 µM with CAKI-1 renal; 3.16 µM with SK-MEL-2 melanoma; 2.23 µM in the experiment with HOP-62 NSCLC; 2.64 µM in the experiment with OVCAR-8 ovarian; 3.31 µM in the experiment with SK-OV-3 ovarian; 4.39 µM in the experiment with HT29 colon. For the same compound, the GI50 was 4.6 µM in the experiment with NCI/ADR-RES ovarian and 2.55 µM in the experiment on SNB-75 CNS. Also, the TGI in the experiment with CAKI-1 renal is 43.7 µM; in the experiment with SK-MEL-2 melanoma, 8.97 µM; in the experiment on HOP-62 NSCLC it was 15.4 µM; with OVCAR-8 ovarian, 23.8 µM; in the experiment with SK-OV-3 ovarian, 13.9 µM; with HT29 colon it was 19.4 µM. Besides, the TGI came to 33.2 µM in the experiment with NCI/ADR-RES ovarian and 14.9 µM with SNB-75 CNS.
On to `O=C(NC1CCCCCC1)C1C(=O)N(C2CCCCCC2)C(=O)/C1=N\O` (stereo not drawn), for which the TGI is above 100 µM with CAKI-1 renal; 40.3 µM in the experiment with SK-MEL-2 melanoma; 36.5 µM in the experiment with HOP-62 NSCLC; above 100 µM in the experiment on OVCAR-8 ovarian; 46.1 µM with HOP-92 NSCLC; above 100 µM in the experiment on SK-OV-3 ovarian. In addition, the TGI stood at 94.2 µM in the experiment on HT29 colon, 40.2 µM with HCC-2998 colon and 91.9 µM in the experiment with SNB-75 CNS.
Take `CC(=O)SCCC1c2[nH]c3ccccc3c2CCN1O` (stereo not drawn): the TGI in the experiment on CAKI-1 renal, in the experiment with SK-MEL-2 melanoma, in the experiment on HOP-62 NSCLC, in the experiment on OVCAR-8 ovarian, in the experiment with HOP-92 NSCLC and in the experiment with SK-OV-3 ovarian was above 100 µM throughout. Further, the results for the TGI in the experiment with HT29 colon, with HCC-2998 colon and with SNB-75 CNS were above 100 µM, above 100 µM and 86.4 µM, respectively.
Consider `COc1cc([N+](=O)[O-])ccc1NC(=O)C(F)(F)F`, for which the TGI with CAKI-1 renal, in the experiment with SK-MEL-2 melanoma, with HOP-62 NSCLC, in the experiment on OVCAR-8 ovarian, with SK-OV-3 ovarian and in the experiment with HT29 colon was above 100 µM in each case. Moreover, the TGI in the experiment on NCI/ADR-RES ovarian and with SNB-75 CNS was above 100 µM throughout.
Consider `Cc1ccc(C(=O)/C=C/c2ccccc2O)c(C)c1`, for which the TGI in the experiment on CAKI-1 renal, in the experiment on SK-MEL-2 melanoma, with HOP-62 NSCLC, in the experiment on OVCAR-8 ovarian, with HOP-92 NSCLC and with SK-OV-3 ovarian was above 100 µM each time. Further, the TGI is 8.42 µM with HT29 colon, above 100 µM in the experiment with HCC-2998 colon and 8.01 µM in the experiment on SNB-75 CNS.
On to `CC(=O)NC(CCCN)C(=O)NCc1ccccc1` (stereo not drawn), for which the TGI with CAKI-1 renal, with SK-MEL-2 melanoma, in the experiment with HOP-62 NSCLC, in the experiment on OVCAR-8 ovarian, in the experiment on HOP-92 NSCLC and with SK-OV-3 ovarian was above 100 µM throughout. Besides, the TGI in the experiment with HT29 colon, in the experiment on HCC-2998 colon and in the experiment with SNB-75 CNS was above 100 µM each time.
As to `COc1cc2c3c(n(CCCCl)c(=O)c2cc1OC)-c1ccccc1C3=O`, the GI50 in the experiment on CAKI-1 renal was 1.44 µM; in the experiment with SK-MEL-2 melanoma, above 100 µM; with HOP-62 NSCLC, 4.49 µM; with OVCAR-8 ovarian, 13.4 µM; in the experiment with HOP-92 NSCLC, 78.8 µM; in the experiment with SK-OV-3 ovarian, above 100 µM. For the same compound, the GI50 is above 100 µM in the experiment on HCC-2998 colon and 6.36 µM in the experiment on NCI/ADR-RES ovarian. Moreover, the TGI in the experiment on CAKI-1 renal is 7.6 µM; in the experiment on SK-MEL-2 melanoma, above 100 µM; in the experiment with HOP-62 NSCLC, 44.5 µM; in the experiment with OVCAR-8 ovarian, above 100 µM; with HOP-92 NSCLC, above 100 µM; with SK-OV-3 ovarian it was above 100 µM. Moreover, the TGI in the experiment on HCC-2998 colon and in the experiment on NCI/ADR-RES ovarian was above 100 µM in each case.
Consider `CC[C@H](C)[C@H](NC(=O)[C@H]1CCCCN1C)C(=O)N(C)[C@H](CCc1nc(C(=O)N[C@@H](Cc2ccccc2)C[C@H](C)C(=O)OC)cs1)C(C)C`, for which the GI50 was 0.104 µM in the experiment on SK-MEL-2 melanoma; 0.777 µM with HOP-62 NSCLC; 0.717 µM with OVCAR-8 ovarian; 0.292 µM in the experiment with HOP-92 NSCLC; 0.797 µM in the experiment with SK-OV-3 ovarian; 0.202 µM in the experiment with HT29 colon. Further, the GI50 with HCC-2998 colon is 0.694 µM; in the experiment with NCI/ADR-RES ovarian, 1.38 µM; in the experiment on SNB-75 CNS, 0.276 µM. Also, the TGI in the experiment on SK-MEL-2 melanoma is 15.9 µM; with HOP-62 NSCLC, above 22.9 µM; in the experiment on OVCAR-8 ovarian it was above 25 µM; with HOP-92 NSCLC, 8.33 µM; in the experiment with SK-OV-3 ovarian, above 25 µM; in the experiment on HT29 colon, 3.06 µM. Further, the TGI was above 13.4 µM in the experiment on HCC-2998 colon, above 25 µM in the experiment on NCI/ADR-RES ovarian and 7.65 µM in the experiment with SNB-75 CNS.
For the compound `COC(=O)C1=C(c2ccc3c(c2)OCO3)O[C@H](c2ccc3c(c2)OCO3)[C@H]1COC(C)=O`, the TGI with CAKI-1 renal, in the experiment on SK-MEL-2 melanoma, in the experiment on HOP-62 NSCLC, with OVCAR-8 ovarian, with HOP-92 NSCLC and in the experiment on SK-OV-3 ovarian was above 100 µM in each case. For the same compound, the TGI in the experiment with HT29 colon, with HCC-2998 colon and in the experiment on SNB-75 CNS was above 100 µM throughout.
`CCCCCCCCCCCCCCCCOP(=O)(O)Oc1ccc(/C=C\c2ccc(OP(=O)(O)OCCCCCCCCCCCCCCCC)cc2)cc1`: the TGI in the experiment on CAKI-1 renal was above 100 µM; with SK-MEL-2 melanoma, above 100 µM; in the experiment on HOP-62 NSCLC, above 100 µM; with OVCAR-8 ovarian it was 56.1 µM; in the experiment with HOP-92 NSCLC, 67.1 µM; with SK-OV-3 ovarian it was above 100 µM. Moreover, the TGI in the experiment with HT29 colon is above 100 µM; with HCC-2998 colon, above 100 µM; with SNB-75 CNS, 80.8 µM.
